In BindingDB's records for doi:10.1016/s0960-894x(99)00489-8 (Glaxowellcome Medicines Research Centre, 1999):

How the values were obtained:
[1] = target: Human cytomegalovirus protease (assemblin) (Human herpesvirus 5); experiment: Inhibitory activity against HCMV protease by SPA assay
[2] = target: Human cytomegalovirus protease (assemblin) (Human herpesvirus 5); experiment: Inhibitory activity against HCMV protease by HPLC assay
[3] = target: Human cytomegalovirus protease (assemblin) (Human herpesvirus 5); experiment: as above; remark: listed apart in the source

| Compound | IC50 [1] | IC50 [2] | IC50 [3] |
| --- | --- | --- | --- |
| CC(=O)C(C(C)=O)C1=C(Cl)C(=O)c2ccccc2C1=O [2-(1-Acetyl-2-oxo-propyl)-3-chloro-[1,4]naphthoquinone] | 0.8 µM | 0.72 µM | – |
| CC(=O)C(C(=O)OCc1ccccc1)C1=C(Cl)C(=O)c2ccccc2C1=O (configuration not stated) [2-(3-Chloro-1,4-dioxo-1,4-dihydro-naphthalen-2-yl)-3-oxo-butyric acid benzyl ester] | 0.73 µM | 0.7 µM | – |
| CCOC(=O)C(C(C)=O)C1=C(Cl)C(=O)c2ccccc2C1=O (configuration not stated) [2-(3-Chloro-1,4-dioxo-1,4-dihydro-naphthalen-2-yl)-3-oxo-butyric acid ethyl ester] | 1.45 µM | 4.8 µM | – |
| CC(=O)C(C(=O)OC(C)C)C1=C(Cl)C(=O)c2ccccc2C1=O (configuration not stated) [2-(3-Chloro-1,4-dioxo-1,4-dihydro-naphthalen-2-yl)-3-oxo-butyric acid isopropyl ester] | 2.68 µM | 9.1 µM | – |
| CC1(C)CC(=O)C(C2=C(Cl)C(=O)c3ccccc3C2=O)C(=O)C1 [2-Chloro-3-(4,4-dimethyl-2,6-dioxo-cyclohexyl)-[1,4]naphthoquinone] | – | – | 150 µM |
| O=C1C(Cl)=C(C2CCCCCC2)C(=O)c2ccccc21 [2-Chloro-3-cycloheptyl-[1,4]naphthoquinone] | – | – | 67 µM |
| O=C1C(OC2CCCCC2)=C(C2CCCCC2)C(=O)c2ccccc21 [2-Cyclohexyl-3-cyclohexyloxy-[1,4]naphthoquinone] | – | – | 110 µM |
| COC(=O)CC1=C(Cl)C(=O)c2ccccc2C1=O [(3-Chloro-1,4-dioxo-1,4-dihydro-naphthalen-2-yl)-acetic acid methyl ester] | – | – | 148 µM |
